Experimental data: patent US20240115649A1, “CASPASE INHIBITION TO ENHANCE REGENERATION AND REPAIR AFTER SKIN OR GUT INJURY AND TO TREAT BACTERIAL OR VIRAL INFECTIONS” (The Johns Hopkins University, priority 2020, published 2024)

Experiments:
pMLKL, MLKL, ICAD = experiment: Western blot analysis of infected skin; format: in vivo, mice
[1] = system: S. aureus USA300 LAC::lux; experiment: Bacterial growth curve kinetics, S. aureus broth cultures; format: cell-based; details: 10, 100 and 1,000 μg/mL; 10 hours; vs vehicle
[2] = system: P. aeruginosa strain Xen41; experiment: Bacterial growth curve kinetics, P. aeruginosa broth cultures; format: cell-based; details: 10, 100 and 1,000 μg/mL; vs vehicle
Staphopain A (sspP) = target: T1, Staphopain A (sspP) (Staphylococcus aureus, UniProt P81297); experiment: Protease activity assays and protein blot, Staphopain A; format: biochemical, S. aureus
T1 construct: purchased CUSABIO
T1 sequence (P81297 215-388): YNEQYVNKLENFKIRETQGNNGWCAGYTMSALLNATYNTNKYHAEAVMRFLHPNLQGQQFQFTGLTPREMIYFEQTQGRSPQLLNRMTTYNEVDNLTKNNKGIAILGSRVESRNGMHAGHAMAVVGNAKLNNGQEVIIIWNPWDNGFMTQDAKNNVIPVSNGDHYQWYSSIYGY

Staphopain B (sspB) = target: T2, Staphopain B (sspB) (Staphylococcus aureus, UniProt P0C1S6); experiment: Protease activity assays and protein blot, Staphopain B; format: biochemical, S. aureus
T2 construct: purchased CUSABIO
T2 sequence (P0C1S6 220-393): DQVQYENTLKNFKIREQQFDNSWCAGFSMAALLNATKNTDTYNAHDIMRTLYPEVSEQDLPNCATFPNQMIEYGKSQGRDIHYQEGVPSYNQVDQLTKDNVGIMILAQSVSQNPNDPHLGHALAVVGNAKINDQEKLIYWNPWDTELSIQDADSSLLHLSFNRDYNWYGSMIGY

S. pyogenes strain Xen20 = format: in vivo; details: WT C57BL/6 mice; single dose at 4 hours; vs untreated
[3] = system: P. aeruginosa strain Xen41; experiment: P. aeruginosa skin infection model; format: in vivo; details: WT C57BL/6 mice; treatment at 4 hours; vs untreated
neogenic hair follicles = experiment: Wound Induced Hair Neogenesis (WIHN) assay; format: in vivo, mice
Experimental: Wound Induced Hair Neogenesis (WIHN) Assay. All in vivo experimental surgical procedures were performed as previously characterized ^1,2,6-8. In short, after exposure to vaporizing anesthesia (Baxter, Isoflurane) the dorsal side of male and female 3-week-old (21 days) mice were shaved at approximately 8-10 g of weight. Using surgical scissors, approximately 1.26 cm^2×1.25 cm^2 of skin was excised creating wounds deep into the fascia. At 3 days post-wounding, a single dose (50 μl) of 100 μg/mL high molecular weight (HMW) polyinosinic-polycytidylic acid (Poly (I:C)) (Invivogen, tlrl-pic) was administered underneath the scab site via injection in both wild-type and transgenic mice as previously described^2,8. For functional experiments characterizing IL-36 on WIHN, a single dose (50 μl) of 1 μg/mL recombinant mouse IL-36α protein (R&D Systems, 7059-ML/CF) was injected underneath the scab site at 7 days post-wounding. For rescue experiments using the small molecule, broad spectrum pan-caspase inhibitor, 20 ul of 5 mg/mL Q-VD-OPh (in DMSO) was diluted 130 μL of phosphate-buffered saline (PBS) (1.33 mM final concentration) and injected intraperitoneally in mice 24 hours prior to wounding and approximately 10 days after wounding (scab detachment).
Immunofluorescence, immunocytochemistry, and immunohistochemistry.

[4] = system: DSS treated C57BL/J6 mice; experiment: DSS-induced colitis model; format: in vivo
Description: Histology. Biopsies from mouse colon and skin tissue were removed and fixed in 4% paraformaldehyde overnight and then transferred to 70% ethanol. Samples were then submitted to the Johns Hopkins Oncology Tissue Services Core facility where they were embedded in paraffin. Tissue sections were obtained at 4pin thickness and mounted onto glass slides, followed by hematoxylin and eosin (H&E) staining.
Colitis Model. In order to induce colitis, adult wild-type, Rnasel -A , and Il36r^−/− mice were fed up to 4% (w/v) 36-50 kDa dextran sodium sulfate (DSS) (MP Biomedicals, 160110) in sterile water^37. Weight changes were monitored and recorded every day. For rescue experiments using the pan-caspase inhibitor Q-VD-OPh, mice were treated at the same concentrations as in WIHN experiments and were injected intraperitoneally during the day when noticeable weight loss began to occur (˜day 3-4). Mice were eventually sacrificed and colon lengths were extracted for gross examination and downstream FACS and protein analysis.

BMDMs = experiment: BMDM cultures with live S. aureus ± caspase inhibitors; details: Q-VD-OPH 10 μg/mL, live S. aureus 6 hours
[5] = system: mouse epithelial keratinocytes; experiment: Mouse epithelial keratinocyte culture (qRT-PCR, immunoblot)

CC(C)[C@H](NC(=O)c1ccc2ccccc2n1)C(=O)N[C@@H](CC(=O)O)C(=O)COc1c(F)cccc1F [Q-VD-OPH, Quinoline-val-asp-difluorophenoxymethyl ketone]
necroptosis (pMLKL and MLKL expression) (pMLKL, MLKL, ICAD; TNF^−/− mice, day 1, vs untreated or Q-VD-OPH treated WT mice): reduced necroptosis | apoptosis (ICAD) (pMLKL, MLKL, ICAD; TNF^−/− mice, infected skin day 1): reduced apoptosis | apoptosis (ICAD) (pMLKL, MLKL, ICAD; WT mice, infected skin day 1): reduced apoptosis | necroptosis (pMLKL, MLKL) (pMLKL, MLKL, ICAD; WT mice, infected skin day 1): increases necroptosis | in vitro absorbance, bioluminescence and CFU (direct antibacterial activity) [1]: no differences in in vitro absorbance, bioluminescence and CFU | in vitro absorbance and bioluminescence [2]: no differences in in vitro absorbance and bioluminescence | physical conformational changes or degradation of sspP (protein blot) (Staphopain A (sspP); 2 hours at 37° C.): did not induce any physical conformational changes or cause degradation | activity of sspP on gelatinase activity or elastin proteolysis (Staphopain A (sspP); Q-VD-OPH 10 μg/mL, 20 hours): did not affect the activity | physical conformational changes or degradation of sspB (protein blot) (Staphopain B (sspB); 2 hours at 37° C.): did not induce any physical conformational changes or cause degradation | activity of sspB on gelatinase activity or elastin proteolysis (Staphopain B (sspB); Q-VD-OPH 10 μg/mL, 20 hours): did not affect the activity | bacterial burden (in vivo BLI) (S. pyogenes strain Xen20): rapidly reduced bacterial burden | skin lesion sizes (S. pyogenes strain Xen20): substantially decreased skin lesion sizes | bacterial burden (in vivo BLI) [3]: modest but significantly decreased | skin lesion sizes [3]: modest but significantly decreased skin lesion sizes | WIHN (neogenic hair follicles; Il36r^−/− mice treated with Q-VD-OPh): do not | WIHN (neogenic hair follicles; wild-type mice, Q-VD-OPh 1.33 mM i.p. 24 hours prior to and ~10 days after wounding, vs vehicle): more WIHN | IL-36α in the epidermis of re-epithelialized wounds (neogenic hair follicles; wild-type mice, Q-VD-OPh i.p., vs vehicle): higher levels of IL-36α in the epidermis of re-epithelialized wounds | gut shortening after DSS treatment ([4]; Il36r^−/− mice): does not rescue gut shortening | weight loss ([4]; Il36r^−/− mice, DSS): does not rescue weight loss | IL-36α expression in the gut ([4]; WT mice): Increased IL-36α expression | neutrophil abundance in the blood or the gut ([4]; regenerative phase following cessation of DSS, vs controls): no change in neutrophil abundance | DSS-induced weight loss ([4]; wild-type mice, 4% DSS, Q-VD-OPh i.p. 1.33 mM, vs control): protected from DSS-induced weight loss | colon length and morphology ([4]; wild-type mice, 4% DSS, Q-VD-OPh i.p., vs control): longer and better colon morphology | necroptosis (western blot for pMLKL and MLKL) (BMDMs): necroptosis was increased | percentages of TNF+ BMDMs (BMDMs; Emricasan 9 μg/mL): 33.53% | viable cells (Zombie UV negative cells) (BMDMs; Emricasan 9 μg/mL, no significant differences vs no treatment): ~80% | IL-36 receptor (IL36r) expression ([5]; 48 hrs treatment): not detected | IL-36 receptor antagonist (IL-36m) protein or mRNA levels ([5]; 48 hrs treatment): No differences | IL-36α mRNA ([5]; 48 hrs treatment): higher levels of IL-36α mRNA and protein | Tlr3 expression ([5]; 48 hrs treatment): again elevated | caspase gene mRNA (inflammatory caspases 1 and 4) ([5]; 48 hrs treatment): compensatory mRNA increases of caspase genes | IL-36α protein (whole-cell lysates) ([5]; mouse epithelial keratinocytes): higher levels of IL-36α mRNA and protein
